Data as given in patent publication US10828301B2, “2,4-pyrimidinediamine compounds and their uses” (Rigel Pharmaceuticals, Inc, priority 2002, dated 2020).
Structures can show the parent of a compound that is named as a salt.

Each compound was assayed on cultured human mast cells (CHMC) (assay: CHMC low cell density IgE activation: tryptase and LTC4 assays). Conditions: Homo sapiens, Mast cell, Low Density CHMC, anti-IgE activation, hexosaminidase readout; read-out: CHMC anti-IgE Hexos.
Assay type: cell-based
Method: Pellet CHMC cells (980 rpm, 10 min) and resuspend in pre-warmed MT. Add 65 ul of cells to each 96-well plate. Depending on the degranulation activity for each particular CHMC donor, load 1000-1500 cells/well. Mix four times followed by a 1 hr incubation at 37° C. […] Stimulate cells by adding 25 ul of 6× anti-IgE solution to the appropriate plates. Add 25 ul MT to un-stimulated control wells. Mix twice following addition of the anti-IgE. Incubate at 37° C. for 30 minutes. […] Spin plates at 1000 rpm for 10 min to pellet cells. Transfer 25 ul of supernatant to a 96-well black bottom plate and add 100 ul of freshly diluted tryptase substrate solution to each well. Incubate plates at room temperature for 30 min.
Leukotriene C4 (LTC4) is also quantified using an ELISA kit on appropriately diluted supernatant samples (determined empirically for each donor cell population so that the sample measurement falls within the standard curve) following the supplier's instructions.

| IC50 [µM] | Structure (SMILES) |
| --- | --- |
| > 10 | COc1ccc(CNc2ncc(F)c(Nc3ccc4c(c3)OCCO4)n2)cc1 [Compound R926230, N4-(3,4-Ethylenedioxyphenyl)-5-fluoro-N2-(4-methoxybenzyl)-2,4-pyrimidinediamine] |
| > 10 | COCCNc1ncc(F)c(Nc2ccc3c(c2)OCCO3)n1 [Compound R926229, N4-(3,4-Ethylenedioxyphenyl)-5-fluoro-N2-(2-methoxyethyl)-2,4-pyrimidinediamine] |

Same assay, conditions: Homo sapiens, Mast cell, Low Density CHMC, anti-IgE activation, tryptase readout; read-out: CHMC anti-IgE Tryptase

| IC50 [µM] | Structure (SMILES) |
| --- | --- |
| 2.33 | CC(C)Oc1ccc(Nc2ncc(F)c(Nn3cccc3)n2)cc1 [Compound R935276, 5-Fluoro-N2-(4-isopropoxyphenyl)-N4-(1H-pyrrol-1-yl)-2,4-pyrimidinediamine] |
| 1.45 | Oc1cccc(Nc2ncc(F)c(Nc3ccc(Cl)nc3)n2)c1 [Compound R927018, N4-(6-Chloropyridin-3-yl)-5-fluoro-N2-(3-hydroxyphenyl)-2,4-pyrimidinediamine] |
| > 10 | O=C(O)c1cc2cc(Nc3ncc(F)c(Nc4cccc(O)c4)n3)ccc2[nH]1 [Compound R926479, N2-(2-Carboxyindol-5-yl)-5-fluoro-N4-(3-hydroxyphenyl)-2,4-pyrimidinediamine] |
| > 10 | COc1cc(Nc2ncc(F)c(Nc3ccc(C(=O)O)c(OC)c3)n2)ccc1C(=O)O [Compound R945068, N2,N4-Bis(4-carboxy-3-methoxyphenyl)-5-fluoro-2,4-pyrimidinediamine] |
| 0.899 | COC(=O)C1Cc2cc(Nc3ncc(F)c(Nc4ccc(OC)nc4OC)n3)ccc2O1 (racemic) [Compound R927032, (±)-N2-(2,3-Dihydro-2-methoxycarbonylbenzofuran-5-yl)-N4-(2,6-dimethoxypyridin-3-yl)-5-fluoro-2,4-pyrimidinediamine] |
| 7.95 | Nc1cccc(Nc2ccnc(Nc3cccc(N)c3)n2)c1 [Compound R950109, N2,N4-Bis(3-aminophenyl)-2,4-pyrimidinediamine] |
| 3.62 | CCOC(=O)C1CCN(C(=O)c2cccc(Nc3ncc(F)c(Nc4cccc(O)c4)n3)c2)CC1 [Compound R926939, N2-[3-[[4-(Ethoxycarbonyl)piperidino]carbonyl]phenyl]-5-fluoro-N4-(3-hydroxyphenyl)-2,4-pyrimidinediamine] |
| > 10 | O=C(O)c1cc2cc(Nc3ncc(F)c(Nc4ccc5c(c4)OCCO5)n3)ccc2o1 [Compound R926698, N4-(3,4-Ethylenedioxyphenyl)-5-fluoro-N2-(2-carboxybenzofuran-5-yl)-2,4-pyrimidinediamine] |
| 4.25 | Nc1ccc(Nc2ncc(F)c(Nc3ccc(N)cc3)n2)cc1 [Compound R950121, N2,N4-Bis(4-aminophenyl)-5-fluoro-2,4-pyrimidinediamine Hydrogen Chloride Salt] |
| 7.75 | CCOC(=O)C1CCN(C(=O)c2cccc(Nc3nc(Nc4cccc(O)c4)ncc3F)c2)CC1 [Compound R926940, N4-[3-[[4-(Ethoxycarbonyl)piperidino]carbonyl]phenyl]-5-fluoro-N2-(3-hydroxyphenyl)-2,4-pyrimidinediamine] |
| > 10 | COc1ccc(Nc2ncc(F)c(Nc3ccc(OC)c(C(=O)O)c3)n2)cc1C(=O)O [Compound R945067, N2,N4-Bis(3-carboxy-4-methoxyphenyl)-5-fluoro-2,4-pyrimidinediamine] |
| 1.18 | Oc1cccc(Nc2ncc(F)c(Nc3ccc4ncccc4c3)n2)c1 [Compound R927019, 5-Fluoro-N2-(3-hydroxyphenyl)-N4-(quinolin-6-yl)-2,4-pyrimidinediamine] |
| 2.45 | Cc1ccc(Nc2nc(Nc3cccc(O)c3)ncc2F)nc1 [Compound R927017, 5-Fluoro-N2-(3-hydroxyphenyl)-N4-(5-methylpyridin-2-yl)-2,4-pyrimidinediamine] |
| 9.5 | Nc1c(F)ccc(Nc2ncc(F)c(Nc3ccc(F)c(N)c3F)n2)c1F [Compound R950138, N2,N4-Bis(3-amino-2,4-difluorophenyl)-5-fluoro-2,4-pyrimidinediamine] |
| > 10 | Cc1noc(C)c1Nc1ncc(F)c(Nc2ccc3c(c2)OCCO3)n1 [Compound R926744, N4-(3,4-Ethylenedioxyphenyl)-5-fluoro-N2-(3,5-dimethylisoxazol-4-yl)-2,4-pyrimidinediamine] |
| > 10 | Cc1onc(-c2ccccc2)c1Nc1ncc(F)c(Nc2ccc3c(c2)OCCO3)n1 [Compound R926743, N4-(3,4-Ethylenedioxyphenyl)-5-fluoro-N2-(3-phenyl-5-methylisoxazol-4-yl)-2,4-pyrimidinediamine] |
| 4.81 | CCOC1CCCc2ccc(Nc3nc(Nc4cccc(O)c4)ncc3F)cc21 (centres unmarked) [Compound R926942, N4-(1-Ethoxy-1,2,3,4-tetrahydronaphthalen-7-yl)-5-fluoro-N2-(3-hydroxyphenyl)-2,4-pyrimidinediamine] |
| 4.44 | CCOC(=O)C1CCN(C(=O)c2cccc(Nc3ncc(F)c(Nc4ccc5cc[nH]c5c4)n3)c2)CC1 [Compound R926935, N2-[3-[[4-(Ethoxycarbonyl)piperidino]carbonyl]phenyl]-5-fluoro-N4-[(1H)-indol-6-yl]-2,4-pyrimidinediamine] |
| 3.55 | Cc1ccc(CNc2ncc(F)c(Nc3ccc4c(c3)OCCO4)n2)cc1Cl [Compound R908696, N2-(3-chloro-4-methylbenzyl)-N4-(3,4-ethylenedioxyphenyl)-5-fluoro-2,4-pyrimidinediamine] |
| 10 | CCOc1ccc(Nc2ccnc(Nc3ccc(OCC)c(N)c3)n2)cc1N [Compound R950142, N2,N4-Bis(3-amino-4-ethoxyphenyl)-2,4-pyrimidinediamine] |
| 5.2 | COC(=O)c1cc(Nc2ncc(F)c(Nc3ccc(OC)c(C(=O)OC)c3)n2)ccc1OC [Compound R945066, N2,N4-Bis(4-methoxy-3-methoxycarbonylphenyl)-5-fluoro-2,4-pyrimidinediamine] |
| 9.98 | Nc1ccc(F)c(Nc2ncc(F)c(Nc3cc(N)ccc3F)n2)c1 [Compound R950158, N2,N4-Bis(5-amino-2-fluorophenyl)-5-fluoro-2,4-pyrimidinediamine] |
| 0.708 | CC(C)(CO)c1ccc(Nc2nc(Nc3ccc4c(c3)OCCO4)ncc2F)cc1 [Compound R935149, N2-(3,4-Ethylenedioxyphenyl)-N4-[4-(2-hydroxy-1,1-dimethylethyl)phenyl]-5-fluoro-2,4-pyrimidinediamine] |
| 8.23 | Nc1cc(Nc2ccnc(Nc3cc(N)cc(C(F)(F)F)c3)n2)cc(C(F)(F)F)c1 [Compound R950143, N2,N4-Bis(3-amino-5-trifluoromethylphenyl)-2,4-pyrimidinediamine] |
| > 10 | Fc1cnc(NCc2ccco2)nc1NCc1ccco1 [Compound R925769, N2,N4-Bis(furfuryl)-5-fluoro-2,4-pyrimidinediamine] |
| > 10 | OC(CNc1ncc(F)c(NCC(O)c2ccccc2)n1)c1ccccc1 (centres unmarked) [Compound R925768, N2,N4-Bis(2-hydroxy-2-phenylethyl)-5-fluoro-2,4-pyrimidinediamine] |
| 2.8 | CCOC(=O)c1cnc(Nc2ccc3c(c2)OCCO3)nc1Nc1ccc2c(c1)OCCO2 [Compound R926252, N2,N4-Bis(3,4-ethylenedioxyphenyl)-5-ethoxycarbonyl-2,4-pyrimidinediamine] |
| 2.41 | CN1C(=O)COc2ccc(Nc3nc(Nc4cccc(O)c4)ncc3F)cc21 [Compound R908709, 5-Fluoro-N2-(3-hydroxyphenyl)-N4-(N-methyl-1,4-benzoxazin-3-on-6-yl)-2,4-pyrimidinediamine] |
| > 10 | O=C(O)c1cc2cc(Nc3ncc(F)c(Nc4cccc(O)c4)n3)ccc2o1 [Compound R926478, N2-(2-Carboxybenzofuran-5-yl)-5-fluoro-N4-(3-hydroxyphenyl)-2,4-pyrimidinediamine] |
| 9 | COC(=O)c1cc(N)cc(Nc2ccnc(Nc3cc(N)cc(C(=O)OC)c3)n2)c1 [Compound R950132, N2,N4-Bis(3-amino-5-methoxycarbonylphenyl)-2,4-pyrimidinediamine] |

Same assay, conditions: Homo sapiens, Mast cell, read-out: CHMC anti-IgE Tryptase

| Structure (SMILES) | IC50 [µM] |
| --- | --- |
| Cc1ccc([N+](=O)[O-])cc1Nc1ncc(F)c(Nc2cc([N+](=O)[O-])ccc2C)n1 [Compound R950146, N2,N4-Bis(2-methyl-5-nitrophenyl)-5-fluoro-2,4-pyrimidinediamine] | > 10 |
| Cc1ccc(Nc2ccnc(Nc3ccc(C)c([N+](=O)[O-])c3)n2)cc1[N+](=O)[O-] [Compound R950153, N2,N4-Bis(4-methyl-3-nitrophenyl)-2,4-pyrimidinediamine] | > 10 |
| O=[N+]([O-])c1cc(Nc2ccnc(Nc3ccc(F)c([N+](=O)[O-])c3)n2)ccc1F [Compound R950152, N2,N4-Bis(4-fluoro-3-nitrophenyl)-2,4-pyrimidinediamine] | 10 |
| COc1ccc([N+](=O)[O-])cc1Nc1ncc(F)c(Nc2cc([N+](=O)[O-])ccc2OC)n1 [Compound R950151, N2,N4-Bis(2-methoxy-5-nitrophenyl)-5-fluoro-2,4-pyrimidinediamine] | > 10 |
| Cc1ccc(Nc2ncc(F)c(Nc3ccc(C)c([N+](=O)[O-])c3)n2)cc1[N+](=O)[O-] [Compound R950144, N2,N4-Bis(4-methyl-3-nitrophenyl)-5-fluoro-2,4-pyrimidinediamine] | 10 |

Same assay, conditions: Low Density CHMC, anti-IgE activation, tryptase readout; read-out: CHMC anti-IgE Tryptase

| IC50 [µM] | Structure (SMILES) |
| --- | --- |
| 1.41 | CNC(=O)COc1cccc(Nc2ncc(F)c(Nc3cc(C)ccn3)n2)c1 [Compound R927016, 5-Fluoro-N2-[3-(N-methylamino)carbonylmethyleneoxyphenyl]-N4-(4-methylpyridin-2-yl)-2,4-pyrimidinediamine] |
